This passage reports solubility, viability and LC50 results from publication PMC6154339, “Synthesis, Characterization, Antimicrobial and Antiproliferative Activity Evaluation of Cu(II), Co(II), Zn(II), Ni(II) and Pt(II) Complexes with Isoniazid-Derived Compound” (Molecules : A Journal of Synthetic Chemistry and Natural …, 2017).

Converted amounts (≈) assume the structure as drawn.

A short description of data set [1]: Solubility in compendial aqueous media. Type of data set: physicochemical. The settings on record: kinetic from dmso stock, 37 °C, mean ± standard deviation, n = 3. How it is done: Solubility assessment was conducted in compendial aqueous solutions prepared according to United States Pharmacopoeia USP39/NF34): hydrochloric acid 0.1 N pH 1.2, acetate buffer pH 4.5 and phosphate buffer 6.8. These buffer systems are routinely used for screening of drug dissolution testing and they simulate the pH values of proximal gastrointestinal regions. The standard samples were prepared by diluting the stock solution of 80 µg/mL in dimethyl sulfoxide (with 0.2% pyridine, v/v) with corresponding media. The reagents were of analytical grade and used as received.
The assay was performed using a SpectraMax Plus 84 Plate reader reader (Sunnyvale, CA, USA), Molecular Devices LLC (US), equiped with SoftMax software version 6.4.2 (Sunnyvale, CA, USA). Separate plates were loaded with standard solutions in nine concentrations (0.2 to 80 µg/mL). For evaluation of the aqueous solubility, the samples were prepared in triplicate by adding 10 µL of the stock solution to the wells loaded with 190 µL of each buffer, using MultiScreen HTS plates (PCF, code MSSLBPC, Merck Millipore, Darmstadt, Germany). After 30 minutes of incubation at 37 ± 0.5 °C under agitation (250 rpm, IKA KS 4000 ic control, IKA, Staufen, Germany), the plates were filtrated under vacuum using a Vac-Man 96 Vacuum manifold (Promega Corporation, Madison, WI, USA). The solutions were collected in V-bottom polypropylene 96-well microplates (Greiner Bio-One, Kremsmünster, Austria). Volumes of 100 µL were transferred to UV-Star 96-well microplate with flat bottom (Chimney well, Grained Bio-One) and diluted by addition of 100 µL of the corresponding medium. The absorbance corresponding to each well was determined at fixed wavelengths: 280, 300, 320, 340, 360 and 800 nm. The reduced value of absorbance, calculated by the sum of the values recorded at the six wavelengths, were used for the calibration curve and subsequent determination of concentration in each solubility sample.

The subject of data set [2] is NCI-H1573 lung adenocarcinoma cell line. The data set is described as follows: Alamar blue cell viability assay. It counts as cell-based. The settings on record: Homo sapiens, NCI-H1573, 48 h, 48 h treatment, relative to untreated control. How it is done: (§1) Compounds HL, 1, 5, 6 and 8 were dissolved in dimethyl sulfoxide (DMSO; Sigma-Aldrich, Ayrshire, UK) and stored at 2–8 °C. Compounds 2, 3, 4 and 7 were dissolved in pyridine (Fluka, Munich, Germany). A stock solution of 10 mM in the proper solvents was prepared; as for the final concentration (10 µM), successive dilution of the stock solution with culture medium was made.
(§2) The breast cancer cell lines were cultured as follow: MCF-7 human breast cancer cell line (ATCC, Rockville, MD, USA) was cultured in EMEM (Sigma Aldrich, Munich, Germany) supplemented with 10% FCS (fetal bovine serum, PromoCell, Heidelberg, Germany), 1% penicillin-streptomycin (Pen/Strep, 10,000 IU/mL; PromoCell, Heidelberg, Germany), 1% nonessential amino acids and 1% glutamine (PromoCell, Heidelberg, Germany). SKBR-3 human breast cancer cell line was cultured in McCoy’s 5a Medium Modified (Sigma Aldrich, Munich, Germany) supplemented with 10% FCS (fetal bovine serum, PromoCell, Heidelberg, Germany), 1% penicillin-streptomycin (Pen/Strep, 10,000 IU/mL; PromoCell, Heidelberg, Germany). A375 human melanoma cell line was cultured in DMEM containing 15% FCS (fetal bovine serum, PromoCell, Heidelberg, Germany) and 1% penicillin-streptomycin (Pen/Strep, 10,000 IU/mL; PromoCell, Heidelberg, Germany). Cells were maintained at an atmosphere of 5% CO2 at 37 °C. NCI-H1573 lung adenocarcinoma cell line was cultured in RPMI-1640 Medium (ATCC, Rockville, MD, USA) supplemented with 10% FCS (fetal bovine serum, PromoCell, Heidelberg, Germany), 1% penicillin-streptomycin (Pen/Strep, 10,000 IU/mL; PromoCell, Heidelberg, Germany).
(§3) All tested cell lines were seeded onto a 96-well microplate ([…]) and left overnight to attach to the bottom of the well. After 24 h, the amount of 150 μL of the tested substances dissolved into the culture medium was added and cells were incubated for 48 h. After the incubation period, a volume of 15 μL of the Alamar blue (BioSource, Camarillo, CA, USA) solution was added. After another 10 h of incubation at 37 °C, the samples were spectrophotometrically analyzed using a microplate reader. The wave lengths used were 570 nm and 600 nm, respectively. Wells with untreated cells were used as controls. The highest concentration of DMSO and pyridine (0.1%) used to prepare stock solutions was also tested, in order to identify the solvent activity. All measurements were performed in triplicate and data were presented as mean ± standard deviation.

The subject of data set [3] is A375 human melanoma cell line. Nature of the data set: Alamar blue cell viability assay. Type of data set: cell-based. Particulars: Homo sapiens, A-375, 48 h treatment, relative to untreated control. How it is done: as §1, §2, §3
For orientation: Resazurin is reduced to fluorescent resorufin, in cell work by metabolically active cells.

The subject of data set [4] is SKBR-3 human breast cancer cell line. Nature of the data set: Alamar blue cell viability assay. It counts as cell-based. Particulars: Homo sapiens, SK-BR-3, 48 h treatment, relative to untreated control. The protocol: as §1, §2, §3
For data set [5], the system named is MCF-7 human breast cancer cell line. Nature of the data set: Alamar blue cell viability assay. It counts as cell-based. The settings on record: Homo sapiens, MCF7, 48 h, 48 h treatment, relative to untreated control. How it is done:
as §1, §2, §3

Another data set can be described thus: in vivo. The settings on record: Daphnia magna.

By solubility is commonly meant the concentration that dissolves in the medium under given conditions. Usually viability stands for the share of living cells, or the viability signal relative to a control. The low end stands for a greater loss of cells, the high end for better survival. What is called LC50 is the concentration that kills 50% of the test population. Lower therefore signals greater toxicity. Consider `COc1cccc(/C=N/NC(=O)c2ccncc2)c1O` [HL, N-isonicotinoyl-N′-(3-metoxy-2 hydroxybenzaldehyde)-hydrazone], for which the solubility at 30 min was 3.49 ± 0.41 µg/mL (≈ 12.9 µM) in data set [1] (aqueous buffer, Acetate Buffer (pH = 4.5)); 0.25 ± 0.02 µg/mL (≈ 0.922 µM) in data set [1] (aqueous buffer, Phosphate Buffer (pH = 6.8)); 2.02 ± 0.02 µg/mL (≈ 7.45 µM) in data set [1] (simulated gastric fluid, Hydrochloric Acid 0.1 N (pH = 1.2)). The viability at 10 µM in data set [2] came out at 29.2%; in data set [3], 82.4%; in data set [4] it was 76.3%; in data set [5], 21.5%. Moreover, the 50% lethal concentration (LC50) in “in vivo” (LC50, incubation period 24 h) amounted to 53.1 µM; in the data set “in vivo” (LC50, incubation period 48 h), 52.6 µM.
